For ten molecules, IC50 results are on record in patent US20050282818A1, “Ubiquitin ligase inhibitors” (Rigel Pharmaceuticals, Inc., priority 2004, published 2005).

Read-outs that look alike come from different tables or passages of the source. A value given as a limit tells only on which side of the number the result lay.

Assay [1] concerns A549 cells. Briefly: Cell proliferation PAD assay, A549. It counts as cell-based. The note with it: Homo sapiens, 48 hours. The method in brief:
(§1)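 Plate 2,000 cells per well, then add compound after 24 h as duplicate 6.3-fold dilutions, with 10 mM master stock diluted 500-fold on transfer. Grow 48 h at 37 °C in 5% CO2, fix with formamide, stain nuclei with DAPI, and count cells by imaging.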

Assay [2] concerns the target T1, TRAF6/Uev1A/Ubc13 (Homo sapiens, UniProt Q9Y4K3).
T1 sequence (Q9Y4K3 1-522): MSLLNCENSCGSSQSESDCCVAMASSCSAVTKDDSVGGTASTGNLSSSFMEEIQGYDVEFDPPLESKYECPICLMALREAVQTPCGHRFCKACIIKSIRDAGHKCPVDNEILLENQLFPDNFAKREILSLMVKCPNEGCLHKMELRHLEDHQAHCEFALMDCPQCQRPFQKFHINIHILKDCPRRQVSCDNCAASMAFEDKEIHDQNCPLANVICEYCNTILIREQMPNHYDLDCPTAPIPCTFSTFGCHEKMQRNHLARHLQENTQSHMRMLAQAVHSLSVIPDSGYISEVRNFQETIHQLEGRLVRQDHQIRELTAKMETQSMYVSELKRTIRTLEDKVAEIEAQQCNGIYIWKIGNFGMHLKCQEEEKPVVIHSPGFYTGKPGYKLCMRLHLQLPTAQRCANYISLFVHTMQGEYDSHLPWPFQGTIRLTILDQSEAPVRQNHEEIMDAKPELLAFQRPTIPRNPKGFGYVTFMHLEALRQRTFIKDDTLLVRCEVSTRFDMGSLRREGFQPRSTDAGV
Briefly: TRAF6/Uev1A/Ubc13 plate-based ubiquitin ligase assay. It is filed as biochemical. In outline:
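Ligase activity was read as luminescence from anti-Flag/HRP detection of Flag-ubiquitin bound to casein-blocked Ni-plates alongside His-ubiquitin after a 1 h room-temperature reaction. Buffer: 62.5 mM Tris pH 7.5, 6.25 mM MgCl2, 1.0 mM DTT, 2 μM ATP; E1, Uev1a/Ubc13 and TRAF6 added last to start. IC50s derived across compound concentrations.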

Assay [3] concerns H1299 cells. Description: Cell proliferation PAD assay, H1299. It counts as cell-based. Particulars: Homo sapiens, 48 hours. The method in brief:
as §1

Assay [4] has as its system OVCAR8 cells. Briefly: Cell proliferation PAD assay, OVCAR8. It counts as cell-based. The note with it: Homo sapiens, OVCAR-8, 6pt, 48 hours. Here is the method: (§2) Cell lines used are available from American Type Culture Collection (ATCC), for example, cell cultures containing A549 (ATCC# CCL-185), HeLa (ATCC# CCL-2), HCT116 ATTC# CCL-247), and H1299 (ATCC# CRL-5803) cells were maintained in T175 flasks following the ATCC recommended media and handling procedures. […] A 20,000 cells/ml solution was made for plating. Cells were plated in black Packard 96 well plates by placing 100 μl per well (2,000 cells per well). […] The definitions of the cell types used are as follows: A549 is lung carcinoma; HI 299 is non-small cell lung carcinoma; HI 155 is non-small cell lung carcinoma; AsPC-1 is pancreatic adenocarcinoma; Caov-3 is ovarian adenocarcinoma; COLO 205 is colorectal adenocarcinoma; DLD-1 colorectal adenocarcinoma; HCT116 is colorectal carcinoma; DU 145 is prostate carcinoma; ES-2 is ovarian clear cell carcinoma; H460 is large cell lung carcinoma; HELA is cervical adenocarcinoma; MIA PaCa-2 is pancreatice carcinoma; OVCAR-3 is ovarian adenocarcinoma; OVCAR8 is ovarian carcinoma; PC3 is prostate adenocarcinoma; SK-OV-3 is ovarian adenocarcinoma; SU86.86 is pancreatic carcinoma; TOV-21G is avarian clear cell carcinoma; U2OS is bone osteosarcoma; is ASPC-I is pancreatic adenocarcinoma; BXPC-3 is pabcreatic adenocarcinoma; HL60 is promyeloblast promyelocytic leukemia; K562 is bone marrow chronic myelogenous leukemia; L1210 is mouse lymphocytic leukemia; MOLT3 is T lymphoblast acute lymphoblastic leukemia; MOLT4 is T lymphoblast acute lymphoblastic leukemia; SW620 is colorectal adenocarcinoma; THP-1 is monocyte acute monocytic leukemia; U937 is histiocytic lymphoma; and UACC-257 is melanoma.
(§3) Compounds and additional media were added 24 hours after cell plating. […] All compound testing was done in duplicate using 6.3 fold dilutions starting with 10 mM. […] Taxol and at least one additional control were run on all plates. Three microliters of the compound master plate were added to deep well blocks containing 750 μl of RPMI media. One hundred microliters were transferred from the compound/media deep well blocks to the plated cells resulting in a 500 fold dilution of the compounds. Cells were grown at 37° C., 5% CO2 for 48 hours.
(§4) Cells to be analyzed by photography were fixed and stained. One hundred microliters of media were removed and 100 μl of 9.3% formamide was added to each well. Plates were left on the benchtop for 45 minutes. A staining solution containing 1.55 μl of 1 mg/ml DAPI added to 18.75 ml PBS was warmed for 15 minutes at 37° C. The cells were aspirated prior to washing with 100 μl of PBS. Seventy microliters of PBS were aspirated and 170 μl of the DAPI solution were added to each well of fixed cells. Plates were left at room temperature for one hour then aspirated and washed twice with 100 μl of PBS. The stained cells were left at 4° C. for a minimum of 16 hours before photographic analysis with Array Scan II (Cellomics). Analysis of the photographic images to determine numbers of live cells (proliferation), apoptotic cells and dead cells, were according to the methods described in U.S. Utility patent application Ser. No. 10/652,440, which incorporated herein in its entirety.

Assay [5] has as its system UACC-257 cells. Description: Cell proliferation PAD assay, UACC-257. It is filed as cell-based. Particulars: Homo sapiens, UACC257 cells, 6pt, 48 hours. As to the method:
as §2, §3, §4

The target of assay [6] is APC11/APC2 (Homo sapiens, UniProt Q9NYG5+Q9UJX6). Briefly: APC-11/APC-2 ligase assay (APC auto ubiquitination). It is filed as biochemical. Particulars: APC assay. In outline:
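His-tagged APC was captured on nickel plates with human E1 (5 ng/well), UbcH5c (20 ng/well), APC (100 ng/well) and Flag-ubiquitin (100 ng/well) in a Tris pH 7.6 reaction buffer containing 2.5 mM ATP, for 1 hour at room temperature. Read-out was anti-Flag/HRP chemiluminescence. IC50 was set against a DMSO control, typically from 6 or 8 concentrations.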

Assay [7] concerns the target T2, ROC1/CUL1 (Homo sapiens, UniProt P62877+Q13616).
T2 construct: made in house
Briefly: ROC1/CUL1 ubiquitin ligase assay (SCF assay). It is filed as biochemical. As to the method:
Inhibition of ubiquitin ligase activity of E1+E2+E3 was measured using the protocol as described in WO 01/75145 with E3 as the ROC1/CUL1, ROC1/CUL2, or ROC2/CUL5 complex.
The wells of nickel-substrate 96-well plates (Pierce Chemical) are blocked with 100 μl of 1 casein/phosphate buffered saline (PBS) for 1 hour at room temperature, then washed with 200 μl of PBST (0.1% Tween-20 in PBS) 3 times. To each well is added the following Flag-ubiquitin (see above) reaction solution: 62.5 mM Tris pH 7.5, 6.25 mm MgCl2, 0.75 mM DTT, 2.5 mM ATP, 2.5 mM NaF1, 2.5 nM Okadaic acid, 100 ng Flag-ubiquitin (made as described above).
The buffer solution is brought to a final volume of 80 μl with Milipore-filtered water, followed by the addition of 10 μl DMSO.
To the above solution is then added 10 μl of ubiquitination enzymes in 20 mM Tris buffer, pH 7.5, and 5% glycerol. E2-Ubch5c and E3-His ROC1/Cul1, ROC1/CUL2, and ROC2/CUL5 are made as described in WO 01/75145. E1 is obtained commercially (Affiniti Research Products, Exeter, U. K.). The following amounts of each enzyme are used for these assays: 5 ng/well of E1; […] E2; and 100 ng/well His-E3. Varying amounts of compounds according to the invention are added and the reaction allowed to proceed at room temperature for 1 hour.
Following the ubiquitination reaction, the wells are washed with 200 μl of PBST 3 times. For measurement of the enzyme-bound ubiquitin, 100 gel of Mouse anti-Flag (1:10,000) and anti-Mouse Ig-HRP (1:15, 000) in PBST are added to each well and allowed to incubate at room temperature for 1 hour. The wells are then washed with 200 μl of PBST 3 times, followed by the addition of 100 μl of luminol substrate (1/5 dilution). Luminescence for each well is then measured using a fluorimeter.
Table 2 below illustrates the inhibitory activity of the compounds of the invention determined by the TRAF6/Uev1A/Ubc13 assay as well as in the ICAM, APC and the ROC1/CUL1 Ubiquitin Ligase Assay (SCF Assay). The IC50 values were determined using a various concentrations of the compounds.

The test system of assay [8] is ICAM-1 expression in A549 cells. Briefly: ICAM assay (IL-1 induced ICAM-1/CD54 expression in A549 cells). It is filed as cell-based, human. Particulars: Homo sapiens, A549, ICAM assay. In outline: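 A549 cells, 10,000/well, preincubated with compound 1 h at 37° C, then stimulated with IL-1 (4 μl of 25 ng/ml added) for 4 h. Surface ICAM-1 detected by anti-CD54 plus anti-mouse IgG staining for 1 h, luminescent read-out after PBS washes.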

Setting [9] is: NCI-H1299, 3pt, read-out: H1299 3pt.
Setting [10] is: NCI-H1299, 6pt, read-out: H1299 6pt.

T2 sequence (P62877 whole entry): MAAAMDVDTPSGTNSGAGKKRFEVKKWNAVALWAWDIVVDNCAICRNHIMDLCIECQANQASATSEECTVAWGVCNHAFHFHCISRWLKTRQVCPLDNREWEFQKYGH
T2 sequence (Q13616 whole entry): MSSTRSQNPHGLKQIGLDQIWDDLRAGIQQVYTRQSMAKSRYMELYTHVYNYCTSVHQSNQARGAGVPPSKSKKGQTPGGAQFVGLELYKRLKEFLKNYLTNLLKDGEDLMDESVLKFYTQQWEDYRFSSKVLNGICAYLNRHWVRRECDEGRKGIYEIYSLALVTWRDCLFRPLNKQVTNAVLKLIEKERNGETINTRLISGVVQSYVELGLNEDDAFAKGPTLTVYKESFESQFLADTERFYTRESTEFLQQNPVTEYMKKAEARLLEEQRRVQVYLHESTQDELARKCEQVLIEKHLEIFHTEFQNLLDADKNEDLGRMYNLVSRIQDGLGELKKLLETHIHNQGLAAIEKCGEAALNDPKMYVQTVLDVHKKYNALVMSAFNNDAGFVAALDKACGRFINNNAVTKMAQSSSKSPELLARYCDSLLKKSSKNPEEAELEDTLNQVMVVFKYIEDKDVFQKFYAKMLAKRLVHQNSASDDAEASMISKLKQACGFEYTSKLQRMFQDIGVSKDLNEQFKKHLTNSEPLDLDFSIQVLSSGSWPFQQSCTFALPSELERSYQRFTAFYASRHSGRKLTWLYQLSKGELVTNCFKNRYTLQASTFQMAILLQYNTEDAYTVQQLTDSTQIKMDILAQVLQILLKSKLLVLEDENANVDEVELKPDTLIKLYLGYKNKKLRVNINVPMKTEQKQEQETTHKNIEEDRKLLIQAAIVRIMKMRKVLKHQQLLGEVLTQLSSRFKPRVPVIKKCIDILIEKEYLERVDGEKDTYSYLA
APC11/APC2, sequence (Q9NYG5 whole entry): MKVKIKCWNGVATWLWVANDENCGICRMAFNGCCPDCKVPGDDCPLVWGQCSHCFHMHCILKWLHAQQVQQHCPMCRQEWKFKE
APC11/APC2, sequence (Q9UJX6 whole entry): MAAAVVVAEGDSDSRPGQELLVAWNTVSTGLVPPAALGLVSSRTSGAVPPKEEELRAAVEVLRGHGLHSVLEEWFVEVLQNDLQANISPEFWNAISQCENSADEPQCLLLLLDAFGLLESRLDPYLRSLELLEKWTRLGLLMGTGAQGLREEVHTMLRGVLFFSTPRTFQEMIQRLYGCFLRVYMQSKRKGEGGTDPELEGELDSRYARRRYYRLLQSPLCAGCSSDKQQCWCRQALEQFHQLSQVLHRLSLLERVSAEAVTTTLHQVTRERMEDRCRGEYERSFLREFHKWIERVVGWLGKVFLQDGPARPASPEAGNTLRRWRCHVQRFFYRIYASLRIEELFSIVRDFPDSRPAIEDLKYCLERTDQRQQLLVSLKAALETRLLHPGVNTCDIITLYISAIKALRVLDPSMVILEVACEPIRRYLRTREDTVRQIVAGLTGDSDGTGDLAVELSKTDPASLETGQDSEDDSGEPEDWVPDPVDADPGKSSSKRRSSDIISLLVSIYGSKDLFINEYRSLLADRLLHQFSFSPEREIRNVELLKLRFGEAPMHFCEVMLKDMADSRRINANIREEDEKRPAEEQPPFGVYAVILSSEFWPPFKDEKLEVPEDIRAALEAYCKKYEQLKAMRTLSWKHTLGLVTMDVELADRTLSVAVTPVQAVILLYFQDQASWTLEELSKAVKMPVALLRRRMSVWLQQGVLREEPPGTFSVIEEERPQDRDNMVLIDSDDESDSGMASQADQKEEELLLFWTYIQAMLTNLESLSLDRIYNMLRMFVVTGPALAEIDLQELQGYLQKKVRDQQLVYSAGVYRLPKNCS

Consider `COC(=O)c1ccc(Nc2ccc(S(=O)(=O)Nc3ccc(C(=O)OC)cc3)c3nonc23)cc1` [compound 9, Methyl 4-{[(7-{[4-(methoxycarbonyl)phenyl]amino}-2,1,3-benzoxadiazol-4-yl)sulfonyl]amino}benzoate], for which the IC50 in assay [1] (3pt, read-out: A549 3pt) was not below 20 µM; in assay [1] (6pt, read-out: A549 6pt), 1 to 20 µM; in assay [2], not below 20 µM; in assay [3] (setting [9]) it was not below 20 µM; in assay [3] (setting [10]), not below 20 µM; in assay [4] it was not below 20 µM. In assay [5], this molecule registered an IC50 not below 20 µM.

As for `COc1ccccc1NS(=O)(=O)c1cccc2nonc12` [compound 11, N-(2-methoxyphenyl)-2,1,3-benzoxadiazole-4-sulfonamide], the IC50 in assay [1] (3pt, read-out: A549 3pt) is not below 20 µM; in assay [2], 1 to 20 µM; in assay [3] (setting [9]), not below 20 µM; in assay [4] it was not below 20 µM; in assay [5] it was not below 20 µM.

As for `O=S(=O)(Nc1ccncc1)c1ccc2nonc2c1` [compound 26, N-pyridin-4-yl-2,1,3-benzoxadiazole-5-sulfonamide], the IC50 is not below 20 µM in assay [1] (3pt, read-out: A549 3pt); not below 20 µM in assay [3] (setting [9]); not below 20 µM in assay [4]; not below 20 µM in assay [5].

For the molecule `O=[N+]([O-])c1cc(Cl)c(Oc2ccc(S(=O)(=O)Nc3cccc4nonc34)cc2Cl)c(Cl)c1` [compound 79, N-2,1,3-benzoxadiazol-4-yl-3-chloro-4-(2,6-dichloro-4-nitrophenoxy)benzenesulfonamide], the IC50 in assay [1] (3pt, read-out: A549 3pt) was 1 to 20 µM; in assay [1] (6pt, read-out: A549 6pt) it was 1 to 20 µM; in assay [2], 1 to 20 µM; in assay [3] (setting [9]), 1 to 20 µM; in assay [3] (setting [10]), 1 to 20 µM; in assay [4], 1 to 20 µM. Besides, the IC50 in assay [5] was not below 20 µM.

Take `CC1CC(C)CN(c2ccc(S(=O)(=O)N3CC(C)CC(C)C3)c3nonc23)C1` (centres unmarked) [compound 193, 4-(3,5-dimethylpiperidin-1-yl)-7-[(3,5-dimethylpiperidin-1-yl)sulfonyl]-2,1,3-benzoxadiazole]: the IC50 in assay [2], in assay [6] and in assay [7] was 1 to 20 µM throughout.

As to `COC(=O)c1ccc(NS(=O)(=O)c2c(Sc3cccc4cccnc34)ccc3nonc23)cc1` [compound 215, methyl 4-({[5-(quinolin-8-ylthio)-2,1,3-benzoxadiazol-4-yl]sulfonyl}amino)benzoate], the IC50 in assay [8] was not below 20 µM; in assay [2] it was 1 to 20 µM; in assay [7], not below 20 µM.

For `O=[N+]([O-])c1ccc(Sc2ccc3ccccc3n2)c2nonc12` [compound 238, 2-[(7-nitro-2,1,3-benzoxadiazol-4-yl)thio]quinoline], the results for the IC50 in assay [8], in assay [2] and in assay [7] were not below 20 µM, 1 to 20 µM and not below 20 µM, respectively.

As to `CN1CCN(S(=O)(=O)c2ccc(Sc3ccc4ccccc4n3)c3nonc23)CC1` [compound 268, 2-({7-[(4-methylpiperazin-1-yl)sulfonyl]-2,1,3-benzoxadiazol-4-yl}thio)quinoline], the IC50 in assay [8], in assay [2] and in assay [7] was not below 20 µM each time.

As to `COc1ccc(Cl)cc1NS(=O)(=O)c1ccc(Cl)c2nonc12` [compound 269, 7-chloro-N-(5-chloro-2-methoxyphenyl)-2,1,3-benzoxadiazole-4-sulfonamide], the IC50 is not below 20 µM in assay [8], 1 to 20 µM in assay [2] and not below 20 µM in assay [7].

Take `O=C(Nc1cccc2nonc12)C1CN(c2ncccc2Cl)C1` [compound 486, N-(2,1,3-benzoxadiazol-4-yl)-1-(3-chloropyridin-2-yl) azetidine-3-carboxamide]: the IC50 in assay [2], in assay [6] and in assay [7] was 1 to 20 µM in each case.
